Where two headings read alike, the source gives them in different places.
Target: T1, F508delCFTR (Homo sapiens, UniProt P13569, DEL508-508)
T1 construct: expressed in transfected cells; host or cells: CFBE41o- human lung derived epithelial cells (CFBE41o-F508delCFTR-HRP), doxycycline-inducible
Assay: Cell Surface Expression-Horse Radish Peroxidase (CSE-HRP) Assay
Type: cell-based
Conditions: for Maximum % activity (with co-corrector) / Maximum % activity (without co-corrector) / Emax: maximum at any tested concentration; for Emax: read-out: Maximum % activity (without co-corrector)
Description: A cellular assay for measuring the F508delCFTR cell surface expression after correction with test compounds either without or with a co-corrector (2 μM of 3-[(2R,4R)-4-({[1-(2,2-difluoro-1,3-benzodioxol-5-yl)cyclopropyl]carbonyl}amino)-7-methoxy-3,4-dihydro-2H-chromen-2-yl]benzoic acid), was developed in human lung derived epithelial cell line (CFBE4lo−) (Veit G et al, (2012) Mol Biol Cell. 23(21): 4188-4202). The development was achieved by expressing the F508delCFTR mutation along with a horseradish peroxidase (HRP) in the fourth exofacial loop, and then measuring the HRP activity using luminescence readout from these cells, CFBE410-F508delCFTR-HRP, that were incubated overnight with the test corrector compounds, either without or with the co-corrector. For this primary assay, the CFBE410-F508delCFTR-HRP cells were plated in 384-well plates (Greiner Bio-one; Cat 781080) at 4,000 cells/well along with 0.5 μg/mL doxycycline to induce the F508delCFTR-HRP expression and further incubated at 37° C., 5% CO2 for 68-72 hours. The test compounds were then added either without or with a co-corrector at the required concentrations and further incubated for 18-24 hours at 33° C. The highest concentration tested was 20 μM or 30 μM (GI-1 to GIII-36) with an 8-point concentration response curve using a 3-fold dilution in both the test compound without or with the co-corrector. Three replicate plates were run to determine one EC50. All plates contained negative controls (dimethyl sulfoxide, DMSO) and positive control (2 μM or 3 μM (GI-1 to GIII-36) of 3-[(2R,4R)-4-({[1-(2,2-difluoro-1,3-benzodioxol-5-yl)cyclopropyl]carbonyl}amino)-7-methoxy-3,4-dihydro-2H-chromen-2-yl]benzoic acid) as well as on-plate concentration response of the positive control. Post incubation, the plates were washed 5× times with Dulbecco's phosphate buffered saline (DPBS), followed by the addition of the HRP substrate, luminol (50 4), and measuring the HRP activity using luminescence readout on EnVision® Multilabel Plate Reader (Perkin Elmer; product number 2104-0010). The raw counts from the experiment were analyzed using Accelrys® Assay Explorer v3.3.
Z′ greater than 0.5 was used as passing quality control criteria for the plates.
The Z′ is defined as: 1−[3*SDPositve Control+3*SDNegative Control/Absolute(MeanPositive Control−MeanNegative Control)] wherein “SD” is standard deviation.
The % activity measured at each of the 8 test concentrations of the test compound added either without or with a co-corrector (2 μM or 3 μM (GI-1 to GIII-36) of 3-[(2R,4R)-4-({[1-(2,2-difluoro-1,3-benzodioxol-5-yl)cyclopropyl]carbonyl}amino)-7-methoxy-3,4-dihydro-2H-chromen-2-yl]benzoic acid) was normalized to the on-plate positive control using the following formulae: % activity (Test compound without co-corrector)=[(test compound without co-corrector response DMSO response)/(positive control response DMSO response)]*100 % activity (Test compound with co-corrector)=[(test compound with co-corrector response DMSO response)/(positive control response DMSO response)]*100
The maximum % activity achieved for the test compound either without or with a co-corrector at any tested concentration is presented in Table 6 along with the respective EC50's calculated using the following general sigmoidal curve with variable Hill slope equation (described as Model 42 in the Accelrys® Assay Explorer v3.3 software): y=(a−d)/(1+(x/c)b)+d
General sigmoidal curve with concentration, response, top, bottom, EC50 and Hill slope. This model describes a sigmoidal curve with an adjustable baseline, a. The equation can be used to fit curves where response is either increasing or decreasing with respect to the independent variable, “x”.
“x” is a concentration of drug under test.
“a” is the maximum response, and “d” is the minimum response
“c” is the inflection point (EGO for the curve. That is, “y” is halfway between the lower and upper asymptotes when x=c.
“b” is the slope-factor or Hill coefficient. […]

[1] = test compound alone, without co-corrector, read-out: EC50 (without co-corrector)
[2] = with co-corrector, read-out: EC50 (with co-corrector)

T1 sequence (P13569 with tags, fused parts or gaps DEL508-508): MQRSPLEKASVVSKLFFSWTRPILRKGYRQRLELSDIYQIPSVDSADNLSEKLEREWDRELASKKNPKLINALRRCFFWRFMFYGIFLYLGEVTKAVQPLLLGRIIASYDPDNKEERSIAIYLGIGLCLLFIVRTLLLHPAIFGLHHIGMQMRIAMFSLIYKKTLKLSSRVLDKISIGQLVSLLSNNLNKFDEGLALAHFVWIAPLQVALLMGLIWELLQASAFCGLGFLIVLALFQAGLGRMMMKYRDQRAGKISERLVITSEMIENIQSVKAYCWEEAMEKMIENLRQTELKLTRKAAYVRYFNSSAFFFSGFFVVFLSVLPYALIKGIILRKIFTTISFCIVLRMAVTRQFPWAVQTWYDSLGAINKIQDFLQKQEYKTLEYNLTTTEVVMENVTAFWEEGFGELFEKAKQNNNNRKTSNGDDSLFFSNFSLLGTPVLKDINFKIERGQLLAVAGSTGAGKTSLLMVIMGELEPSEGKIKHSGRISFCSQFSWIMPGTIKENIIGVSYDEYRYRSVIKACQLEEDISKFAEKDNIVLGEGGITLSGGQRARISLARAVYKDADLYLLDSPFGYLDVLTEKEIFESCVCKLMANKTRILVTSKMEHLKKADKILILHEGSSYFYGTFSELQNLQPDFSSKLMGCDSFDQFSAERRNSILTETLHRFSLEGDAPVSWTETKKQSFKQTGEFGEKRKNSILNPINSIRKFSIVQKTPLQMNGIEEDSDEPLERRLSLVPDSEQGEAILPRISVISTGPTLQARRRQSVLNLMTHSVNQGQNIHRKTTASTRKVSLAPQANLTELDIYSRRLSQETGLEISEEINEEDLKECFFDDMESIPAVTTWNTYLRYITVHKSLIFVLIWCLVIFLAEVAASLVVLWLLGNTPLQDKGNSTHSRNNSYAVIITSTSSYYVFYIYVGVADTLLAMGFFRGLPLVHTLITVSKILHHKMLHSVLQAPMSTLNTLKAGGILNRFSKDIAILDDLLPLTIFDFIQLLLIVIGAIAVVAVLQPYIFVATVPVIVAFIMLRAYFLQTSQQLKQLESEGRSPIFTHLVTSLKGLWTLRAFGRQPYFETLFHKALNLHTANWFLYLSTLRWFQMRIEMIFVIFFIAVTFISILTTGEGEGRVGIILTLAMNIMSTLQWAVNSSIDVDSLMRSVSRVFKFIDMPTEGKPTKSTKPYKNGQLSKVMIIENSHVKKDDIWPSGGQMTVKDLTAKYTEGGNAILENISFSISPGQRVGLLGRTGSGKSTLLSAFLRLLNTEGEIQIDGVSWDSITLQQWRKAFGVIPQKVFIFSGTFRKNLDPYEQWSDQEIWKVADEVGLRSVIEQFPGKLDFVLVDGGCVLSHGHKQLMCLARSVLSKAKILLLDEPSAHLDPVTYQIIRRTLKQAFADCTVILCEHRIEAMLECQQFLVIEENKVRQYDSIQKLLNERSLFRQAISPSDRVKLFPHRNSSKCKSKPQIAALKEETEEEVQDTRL

| Compound | Maximum % activity (with co-corrector) (test compound with co-corrector) | EC50 (test compound with co-corrector, read-out: EC50 (with co-corrector)) [µM] | Maximum % activity (without co-corrector) (test compound without co-corrector) | EC50 (test compound without co-corrector, read-out: EC50 (without co-corrector)) [µM] | EC50 [1] [µM] | Maximum % activity (with co-corrector) (with co-corrector) | EC50 [2] [µM] | Emax (without co-corrector) [%] | Maximum % activity (without co-corrector) (without co-corrector) |
| --- | --- | --- | --- | --- | --- | --- | --- | --- | --- |
| CC(C)Oc1ncc(Br)cc1C1(C(=O)NS(=O)(=O)c2cccc3c2CCCN3)CC1 [Example GI-2, 1-{5-bromo-2-[(propan-2-yl)oxy]pyridin-3-yl}-N-(1,2,3,4-tetrahydroquinoline-5-sulfonyl)cyclopropane-1-carboxamide] |  |  |  |  | < 3 | +++ (≥350) | < 3 | > 150 |  |
| COc1ncc(Cl)cc1C1(C(=O)NS(=O)(=O)c2cccc3ccccc23)CC1 [Example GI-3, 1-(5-chloro-2-methoxypyridin-3-yl)-N-(naphthalene-1-sulfonyl)cyclopropane-1-carboxamide] |  |  |  |  | < 3 | +++ (≥350) | < 3 |  | +++ (≥150) |
| CCCc1nc(C(F)(F)F)ccc1C1(C(=O)NS(=O)(=O)c2cccc3ncccc23)CC1 [Example GI-4, 1-[2-propyl-6-(trifluoromethyl)pyridin-3-yl]-N-(quinoline-5-sulfonyl)cyclopropane-1-carboxamide] |  |  |  |  | 3 to 10 | +++ (≥350) | < 3 | > 150 |  |
| O=C(NS(=O)(=O)c1cccc2ncccc12)C1(c2ccc(C(F)(F)F)nc2C2CC2)CC1 [Example GI-5, 1-[2-cyclopropyl-6-(trifluoromethyl)pyridin-3-yl]-N-(quinoline-5-sulfonyl)cyclopropane-1-carboxamide] |  |  |  |  | 3 to 10 | +++ (≥350) | < 3 | > 150 |  |
| O=C(NS(=O)(=O)c1cccc2c1CCCN2)C1(c2ccc(C(F)(F)F)nc2C2CC2)CC1 [Example GI-6, 1-[2-cyclopropyl-6-(trifluoromethyl)pyridin-3-yl]-N-(1,2,3,4-tetrahydroquinoline-5-sulfonyl)cyclopropane-1-carboxamide] |  |  |  |  | 3 to 10 | +++ (≥350) | < 3 | > 150 |  |
| CC(C)c1nc(C(F)(F)F)ccc1C1(C(=O)NS(=O)(=O)c2cccc3ncccc23)CC1 [Example GI-7, 1-[2-(propan-2-yl)-6-(trifluoromethyl)pyridin-3-yl]-N-(quinoline-5-sulfonyl)cyclopropane-1-carboxamide] |  |  |  |  | 3 to 10 | +++ (≥350) | < 3 | > 150 |  |
| CC(C)c1nc(C(F)(F)F)ccc1C1(C(=O)NS(=O)(=O)c2cccc3c2CCCN3)CC1 [Example GI-9, 1-[2-(propan-2-yl)-6-(trifluoromethyl)pyridin-3-yl]-N-(1,2,3,4-tetrahydroquinoline-5-sulfonyl)cyclopropane-1-carboxamide] |  |  |  |  | < 3 | +++ (≥350) | < 3 | > 150 |  |
| O=C(NS(=O)(=O)c1cccc2ccccc12)C1(c2ccc(C(F)(F)F)nc2C2CCC2)CC1 [Example GI-11, 1-[2-cyclobutyl-6-(trifluoromethyl)pyridin-3-yl]-N-(naphthalene-1-sulfonyl)cyclopropane-1-carboxamide] |  |  |  |  | < 3 | +++ (≥350) | < 3 | > 150 |  |
| CCc1cnc(OC(C)C)c(C2(C(=O)NS(=O)(=O)c3cccc4ncccc34)CC2)c1 [Example GI-13, 1-{5-ethyl-2-[(propan-2-yl)oxy]pyridin-3-yl}-N-(quinoline-5-sulfonyl)cyclopropane-1-carboxamide] |  |  |  |  | < 3 | +++ (≥350) | < 3 | > 150 |  |
| CCc1cnc(OC(C)C)c(C2(C(=O)NS(=O)(=O)c3cccc4c3CCCN4)CC2)c1 [Example GI-14, 1-{5-ethyl-2-[(propan-2-yl)oxy]pyridin-3-yl}-N-(1,2,3,4-tetrahydroquinoline-5-sulfonyl)cyclopropane-1-carboxamide] |  |  |  |  | 3 to 10 | +++ (≥350) | < 3 | > 150 |  |
| O=C(NS(=O)(=O)c1cccc2ncccc12)C1(c2ccc(C(F)(F)F)nc2N2CCCC2)CC1 [Example GI-15, 1-[2-(pyrrolidin-1-yl)-6-(trifluoromethyl)pyridin-3-yl]-N-(quinoline-5-sulfonyl)cyclopropane-1-carboxamide] |  |  |  |  | < 3 | +++ (≥350) | < 3 | > 150 |  |
| COc1cc(C2(C(=O)NS(=O)(=O)c3cccc4ncccc34)CC2)c(OC(C)C)cn1 [Example GI-16, 1-{2-methoxy-5-[(propan-2-yl)oxy]pyridin-4-yl}-N-(quinoline-5-sulfonyl)cyclopropane-1-carboxamide] |  |  |  |  | 3 to 10 | +++ (≥350) | < 3 | > 150 |  |
| COc1cc(OC(C)C)c(C2(C(=O)NS(=O)(=O)c3cccc4ncccc34)CC2)cn1 [Example GI-17, 1-{6-methoxy-4-[(propan-2-yl)oxy]pyridin-3-yl}-N-(quinoline-5-sulfonyl)cyclopropane-1-carboxamide] |  |  |  |  | 3 to 10 | +++ (≥350) | < 3 | > 150 |  |

Other lines, results leading:

| Maximum % activity (with co-corrector) (test compound with co-corrector) | EC50 (test compound with co-corrector, read-out: EC50 (with co-corrector)) [µM] | Maximum % activity (without co-corrector) (test compound without co-corrector) | EC50 (test compound without co-corrector, read-out: EC50 (without co-corrector)) [µM] | EC50 [1] [µM] | Maximum % activity (with co-corrector) (with co-corrector) | EC50 [2] [µM] | Emax (without co-corrector) [%] | Maximum % activity (without co-corrector) (without co-corrector) | Compound |
| --- | --- | --- | --- | --- | --- | --- | --- | --- | --- |
| +++ (≥350) | < 3 | +++ (≥150) | < 3 |  |  |  |  |  | 1-[5-(cyclopropylmethoxy)-2-methoxypyridin-4-yl]-N-(2-methylquinoline-5-sulfonyl)cyclopropane-1-carboxamide [Example GI-93] |
|  |  |  |  | < 3 | +++ (≥350) | < 3 | > 150 |  | CC(C)Oc1ncc(Br)cc1C1(C(=O)NS(=O)(=O)c2cccc3ncccc23)CC1 [Example GI-1, 1-{5-bromo-2-[(propan-2-yl)oxy]pyridin-3-yl}-N-(quinoline-5-sulfonyl)cyclopropane-1-carboxamide] |
|  |  |  |  | < 3 | +++ (≥350) | < 3 | > 150 |  | CCCc1nc(C(F)(F)F)ccc1C1(C(=O)NS(=O)(=O)c2cccc3c2CCCN3)CC1 [Example GI-8, 1-[2-propyl-6-(trifluoromethyl)pyridin-3-yl]-N-(1,2,3,4-tetrahydroquinoline-5-sulfonyl)cyclopropane-1-carboxamide] |
|  |  |  |  | < 3 | +++ (≥350) | < 3 | > 150 |  | O=C(NS(=O)(=O)c1cccc2c1CCCN2)C1(c2ccc(C(F)(F)F)nc2C2CCC2)CC1 [Example GI-10, 1-[2-cyclobutyl-6-(trifluoromethyl)pyridin-3-yl]-N-(1,2,3,4-tetrahydroquinoline-5-sulfonyl)cyclopropane-1-carboxamide] |
|  |  |  |  | < 3 | +++ (≥350) | < 3 | > 150 |  | CC(C)COc1cnc(C2CC2)c(C2(C(=O)NS(=O)(=O)c3cccc4ncccc34)CC2)c1 [Example GI-12, 1-[2-cyclopropyl-5-(2-methylpropoxy)pyridin-3-yl]-N-(quinoline-5-sulfonyl)cyclopropane-1-carboxamide] |

From patent publication US10829473B2, “Modulators of the cystic fibrosis transmembrane conductance regulator protein and methods of use” (AbbVie Overseas S.Á.R.L., priority 2017, dated 2020)
